The source made the active and inactive calls. The rule behind the calls is not given here.
How the values were obtained:
Trypanosoma cruzi [1] = experiment: Antitrypanosomal activity against epimastigote stage of Trypanosoma cruzi Dm28c after 72 hrs by resazurin dye based microplate reader analysis; assay type: functional
[2] = Selectivity index, ratio of CC50 for African green monkey Vero cells to IC50 for epimastigote stage of Trypanosoma cruzi Dm28c; assay type: functional
Mus musculus = experiment: Toxicity in acute chagas BALB/c mouse model infected with trypomastigotes stage of Trypanosoma cruzi strain CL Brener assessed as mortality at 50 mg/kg/day, po administered for 14 days started on day 9 post infection measured at 30 to 60 days; assay type: organism-based; details: in vivo
Trypanosoma cruzi [3] = experiment: Antitrypanosomal activity against trypomastigotes stage of Trypanosoma cruzi strain CL Brener infected in acute chagas BALB/c mouse model assessed as survival rate at 50 mg/kg/day, po administered for 14 days started on day 9 post infection measured at 30 to 60 days; assay type: functional, organism-based
Trypanosoma cruzi [4] = experiment: (§1) Antitrypanosomal activity against trypomastigotes stage of Trypanosoma cruzi strain CL Brener infected in acute chagas BALB/c mouse model assessed as survival rate at 10 mg/kg/day, po administered for 14 days started on day 9 post infection measured at 30 to 60 days; assay type: functional
[5] = Toxicity in acute chagas BALB/c mouse model infected with trypomastigotes stage of Trypanosoma cruzi strain CL Brener assessed as mortality at 50 mg/kg/day, po administered for 14 days started on day 9 post infection measured on day 20; assay type: organism-based; details: in vivo
Trypanosoma cruzi [6] = experiment: as §1, with “assessed as reduction in parasitaemia at 10” for “assessed as survival rate at 10”, “60 days by Neubauer chamber analysis relative to control” for “60 days”; assay type: functional; set-up: scale not given: the % may be the effect or the level left
Trypanosoma cruzi [7] = experiment: as §1, with “time for maximum parasitaemia parasitaemia” for “survival rate”, “by Neubauer chamber analysis (reference value: 26 days)” for “measured at 30 to 60 days”; assay type: functional

SMILES	IC50 (Trypanosoma cruzi [1]) [µM]	other results
C/C(=N\NC(N)=[Se])c1ccc(Cl)c(Cl)c1	50.2	–
CC/C(=N\NC(N)=[Se])c1cccc(C(F)(F)F)c1	6.5	–
C/C(=N\NC(N)=[Se])c1ccccc1	12.4	–
C/C(=N\NC(N)=[Se])c1cccc(C)c1	12.2	–
C/C(=N\NC(N)=[Se])C(C)C	50.2	–
COc1ccc(/C=N/NC(N)=[Se])cc1	25.5	–
CN(C)c1ccc(/C=N/NC(N)=[Se])cc1	26.2	–
O=C(Cn1ccnc1[N+](=O)[O-])NCc1ccccc1 [BENZNIDAZOLE]	12.5	Ratio CC50/IC50 [2]: 25; Activity (Mus musculus): Non-toxic; Activity (Trypanosoma cruzi [3]): Active
C/C(=N\NC(N)=[Se])c1cccc(Cl)c1	12.5	–
C/C(=N\NC(N)=[Se])c1cccc(Br)c1	1.2	Ratio CC50/IC50 [2]: 39; survival at 10 mg/kg/day (Trypanosoma cruzi [4]): 71%; mortality at 336 h [5]: 100%; Activity (Trypanosoma cruzi [6]): 50%; Time (Trypanosoma cruzi [7]): 26 days

Reference: ChEMBL document CHEMBL3758181, “New approach towards the synthesis of selenosemicarbazones, useful compounds for Chagas' disease” (Eur J Med Chem, 2016)
